Results published in patent US4075192A, “Nonapeptides and methods for their production” (Parke, Davis & Company, priority 1977, dated 1978).
Non-standard residues stand in square brackets, D forms with d. Residues, ends and D or L forms follow the SMILES beside them. No end group written: not given here. *: point of attachment. pGlu = O=C1CC[C@@H](C(=O)O)N1; Orn = NCCC[C@H](N)C(=O)O; Bn = c1ccc(C*)cc1

Tested on: LRF (luteinizing hormone releasing factor) induced luteinizing hormone (LH) release
Assay: In vitro LRF antagonist test in rat anterior pituitary cell cultures
Format: cell-based
Excerpt: Nonapeptides of this invention were screened for LRF antagonist activity in vitro using rat anterior pituitary cell cultures as described by Vale et al. [Endocrinology, 91, 562 (1972)]. The inhibition of LRF (luteinizing hormone releasing factor) induced luteinizing hormone (LH) release into the culture medium is the endpoint in this in vitro bioassay.

Row | Compound | LH Value (compound Molar Conc. 1×10^-6, LH released into culture medium) [ng/mL] | % LH Release Inhibition (compound Molar Conc. 1×10^-6, inhibition of LRF induced LH release) [%] | LH Value (LRF alone, Molar Conc. 2.5×10^-10) [ng/mL]
1 | CCNC(=O)[C@@H]1CCCN1C(=O)[C@H](CCCN)NC(=O)[C@H](CC(C)C)NC(=O)[C@@H](C)NC(=O)[C@H](COCc1ccccc1)NC(=O)[C@H](Cc1ccc(OCc2ccccc2)cc1)NC(=O)[C@H](Cc1c[nH]c2ccccc12)NC(=O)[C@@H](Cc1ccccc1)NC(=O)[C@@H]1CCC(=O)N1 [L-pyroglutamyl-D-phenylalanyl-L-tryptophyl-O-benzyl-L-tyrosyl-O-benzyl- L-seryl-D-alanyl-L-leucyl-L-ornithyl-L-proline N-ethylamide] ([pGlu][dF]WY(Bn)S(Bn)[dA]L[Orn]P-NHEt) | 19.15 | 61 | –
2 | LRF Control: luteinizing hormone releasing factor, also referred to as luteinizing hormone releasing hormone, LH-RH; stimulates secretion of luteinizing hormone (QHWSYGLRPG; ends and bridges not checked; UniProt P01148 24-33, looked up) [reference compound] | – | – | 39.98
